US20250197420A1, “MACROCYCLIC COMPOUNDS, COMPOSITIONS, AND METHODS OF USING THEREOF” (Sionna Therapeutics Inc., priority 2022, published 2025)

Legend:
[1] = system: Primary human bronchial epithelial cells from a ΔF508 homozygous CF donor (CF-HBE cells); assay: TECC24 recording of CFTR-mediated transepithelial chloride transport, AUC fold over benchmark VX-809 @10 μM; assay type: cell-based; details: 48 hours incubation, AUC of forskolin-stimulated IEQ
In short: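 Values are the forskolin-to-inhibitor-172 AUC of equivalent Cl− current, derived from transepithelial voltage and resistance, divided by the VX-809 AUC and binned as A <3, B 3–6, C 6–20. Cells were pre-incubated with compound for 48 h at 36.5 °C; the bath (pH 7.4) received benzamil 10 μM, forskolin 10 μM, then CFTRinh-172 20 μM.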

[2] = target: T1, Purified recombinant NBD1 (Homo sapiens, UniProt P13569); assay: Aggregation analysis using differential static light scattering (DSLS): thermal stability of NBD1; assay type: binding; details: NBD1 0.2 mg/ml; Tagg of compound well minus average Tagg of DMSO control wells
T1 construct: Purified recombinant NBD1 was produced using previously described methods; made in house
In short: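 ΔTagg is compound-well aggregation temperature minus the DMSO-control mean, each Tagg being the inflection point of light scattering measured by DSLS during a 1 °C/min ramp up to 70 °C. The protein was purified NBD1 (0.2 mg/ml) in pH 7.6 buffer containing 2 mM ATP, 5 mM MgCl2 and 1% glycerol.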

T1 sequence (P13569 423-646 limits assumed): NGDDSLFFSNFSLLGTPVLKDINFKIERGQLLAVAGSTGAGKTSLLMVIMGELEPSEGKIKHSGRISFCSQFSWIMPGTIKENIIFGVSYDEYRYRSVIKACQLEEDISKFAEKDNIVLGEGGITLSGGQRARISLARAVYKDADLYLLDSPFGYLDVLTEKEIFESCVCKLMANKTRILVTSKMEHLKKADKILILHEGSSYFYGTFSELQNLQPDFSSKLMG

| Compound | TECC (test agent AUC divided by VX-809 AUC) [1] | DSLS (ΔTagg) [2] |
| --- | --- | --- |
| CN1CCCCC(C)(c2cccc(CCC(=O)O)c2)c2cnc([nH]2)-c2cc(ccc2F)Oc2c(F)cc3[nH]ccc3c2CC1=O (stereo not drawn) [Compound 68, 3-[3-(21,27-Difluoro-6,11-dimethyl-12-oxo-23-oxa-3,11,18,29-tetrazapentacyclo[22.3.1.12,5.014,22.015,19]nonacosa-1(28),2,4,14,16,19,21,24,26-nonaen-6-yl)phenyl]propanoic acid] | A (a TECC value less than 3 is marked “A”) | B (a value above 5 °C and less than or equal to 10 °C is marked “B”) |
| CN1CC(C)(C)CCCC(C)(c2cccc(CCC(=O)NO)c2)c2cnc([nH]2)-c2cc(ccc2F)Oc2c(F)cc3[nH]ccc3c2CCC1=O (single isomer, unassigned) [Compound 54, 3-[3-(23,29-difluoro-6,10,10,12-tetramethyl-13-oxo-25-oxa-3,12,20,31-tetrazapentacyclo-[24.3.1.12,5.016,24.017,21]hentriaconta-1(30),2,4,16,18,21,23,26,28-nonaen-6-yl)phenyl]propanehydroxamic acid] | A (a TECC value less than 3 is marked “A”) | A (an ΔTagg value less than or equal to 5 °C is marked “A”) |
| CC1(c2cccc(CCC(=O)O)c2)CCCC(O)CNC(=O)CCc2c(c(F)cc3[nH]ccc23)Oc2ccc(F)c(c2)-c2ncc1[nH]2 (stereo not drawn) [Compound 106, 3-[3-(23,29-Difluoro-10-hydroxy-6-methyl-13-oxo-25-oxa-3,12,20,31-tetrazapentacyclo[24.3.1.12,5.016,24.017,21]hentriaconta-1(30),2,4,16,18,21,23,26,28-nonaen-6-yl)phenyl]propanoic acid] | B (a value between 3 and 6 is marked “B”) | C (a value greater than 10 °C and less than or equal to 25 °C is marked “C”) |
| Cn1nc2nc1-c1cc(ccc1F)Oc1c(F)cc3[nH]ccc3c1COC(=O)NC(C)(C)CCCCC2c1cccc(CCC(=O)O)c1 (single isomer, unassigned) [Compound 97A, 3-[3-(23,29-difluoro-3,11,11-trimethyl-13-oxo-14,25-dioxa-3,4,12,20,31-pentazapentacyclo-[24.3.1.12,5.016,24.017,21]hentriaconta-1(30),2(31),4,16,18,21,23,26,28-nonaen-6-yl)phenyl]propanoic acid] | B (a value between 3 and 6 is marked “B”) | C (a value greater than 10 °C and less than or equal to 25 °C is marked “C”) |
| CCOC(=O)Cc1cccc(C2(C)CCCC(C)(C)CN(C)C(=O)CCc3c(c(F)cc4[nH]ccc34)Oc3ccc(F)c(c3)-c3ncc2[nH]3)c1 (single isomer, unassigned) [Compound 64A, ethyl 2-[3-(23,29-difluoro-6,10,10,12-tetramethyl-13-oxo-25-oxa-3,12,20,31-tetrazapentacyclo-[24.3.1.12,5.016,24.017,21]hentriaconta-1(30),2,4,16,18,21,23,26,28-nonaen-6-yl)phenyl]acetate] | A (a TECC value less than 3 is marked “A”) | A (an ΔTagg value less than or equal to 5 °C is marked “A”) |
| CN1CC(C)(C)CCCC(C)(c2cccc(CCC(=O)O)c2)c2cnc([nH]2)-c2cc(ccc2F)Oc2c(F)cc3[nH]ccc3c2CCC1=O (single isomer, unassigned) [Compound 49A, 3-[3-(23,29-Difluoro-6,10,10,12-tetramethyl-13-oxo-25-oxa-3,12,20,31-tetrazapentacyclo-[24.3.1.12,5.016,24.017,21]-hentriaconta-1(30),2,4,16,18,21,23,26,28-nonaen-6-yl)phenyl]propanoic acid] | A (a TECC value less than 3 is marked “A”) | A (an ΔTagg value less than or equal to 5 °C is marked “A”) |
| CC1(C)CCCC(C)(c2cccc(CCC(=O)O)c2)c2cnc([nH]2)-c2cc(ccc2F)Oc2c(F)cc3[nH]ccc3c2CCC(=O)NC1 (single isomer, unassigned) [Compound 40B, 3-[3-(23,29-difluoro-6,10,10-trimethyl-13-oxo-25-oxa-3,12,20,31-tetrazapentacyclo-[24.3.1.12,5.016,24.017,21]hentriaconta-1(30),2,4,16,18,21,23,26,28-nonaen-6-yl)phenyl]propanoic acid] | B (a value between 3 and 6 is marked “B”) | C (a value greater than 10 °C and less than or equal to 25 °C is marked “C”) |
| CN1CC(C)(C)CCCCC(C)(c2ccccc2)c2cnc([nH]2)-c2cc(ccc2F)Oc2c(F)cc3[nH]ccc3c2CCC1=O (stereo not drawn) [Compound 62, 24,30-Difluoro-6,11,11,13-tetramethyl-6-phenyl-26-oxa-3,13,21,32-tetrazapentacyclo[25.3.1.12,5.017,25.018,22]dotriaconta-1(31),2,4,17,19,22,24,27,29-nonaen-14-one] | A (a TECC value less than 3 is marked “A”) | A (an ΔTagg value less than or equal to 5 °C is marked “A”) |
| CON(C)C(=O)CCc1cccc(C2(C)CCCC(C)(C)CN(C)C(=O)CCc3c(c(F)cc4[nH]ccc34)Oc3ccc(F)c(c3)-c3ncc2[nH]3)c1 (single isomer, unassigned) [Compound 60B, 3-[3-(23,29-difluoro-6,10,10,12-tetramethyl-13-oxo-25-oxa-3,12,20,31-tetrazapentacyclo-[24.3.1.12,5.016,24.017,21]hentriaconta-1(30),2,4,16,18,21,23,26,28-nonaen-6-yl)phenyl]-N-methoxy-N-methyl-propanamide] | B (a value between 3 and 6 is marked “B”) | B (a value above 5 °C and less than or equal to 10 °C is marked “B”) |
| CN1CC(C)(C)CCCC(C)(c2cccc(CCC(=O)NOCCO)c2)c2cnc([nH]2)-c2cc(ccc2F)Oc2c(F)cc3[nH]ccc3c2CCC1=O (single isomer, unassigned) [Compound 58, 3-[3-(23,29-difluoro-6,10,10,12-tetramethyl-13-oxo-25-oxa-3,12,20,31-tetrazapentacyclo[24.3.1.12,5.016,24.017,21]hentriaconta-1(30),2,4,16,18,21,23,26,28-nonaen-6-yl)phenyl]-N-(2-hydroxyethoxy)propanamide] | A (a TECC value less than 3 is marked “A”) | A (an ΔTagg value less than or equal to 5 °C is marked “A”) |
| CC1(C)CCC(C)(c2cccc(CCC(=O)O)c2)c2cnc([nH]2)-c2cc(ccc2F)Oc2c(F)cc3[nH]ccc3c2CCNC(=O)OC1 (stereo not drawn) [Compound 45, 3-[3-(23,29-Difluoro-6,9,9-trimethyl-12-oxo-11,25-dioxa-3,13,20,31-tetrazapentacyclo[24.3.1.12,5.016,24.017,21]hentriaconta-1(30),2,4,16(24),17(21),18,22,26,28-nonaen-6-yl)phenyl]propanoic acid] | B (a value between 3 and 6 is marked “B”) | C (a value greater than 10 °C and less than or equal to 25 °C is marked “C”) |
| CN1CC(C)(C)CCCC(c2cccc(CCC(=O)O)c2)n2ccc(n2)-c2cc(ccc2F)Oc2c(F)cc3[nH]ccc3c2CCC1=O (stereo not drawn) [Compound 38, 3-[3-(23,29-difluoro-10,10,12-trimethyl-13-oxo-25-oxa-5,12,20,31-tetrazapentacyclo[24.3.1.12,5.016,24.017,21]hentriaconta-1(30),2(31),3,16,18,21,23,26,28-nonaen-6-yl)phenyl]propanoic acid] | A (a TECC value less than 3 is marked “A”) | A (an ΔTagg value less than or equal to 5 °C is marked “A”) |
| Cn1nc2nc1-c1cc(ccc1F)Oc1c(F)cc3[nH]ccc3c1COC(=O)NC(C)(C)CCCCC2c1cccc(CCC(=O)O)c1 (single isomer, unassigned) [Compound 97B, 3-[3-(23,29-difluoro-3,11,11-trimethyl-13-oxo-14,25-dioxa-3,4,12,20,31-pentazapentacyclo-[24.3.1.12,5.016,24.017,21]hentriaconta-1(30),2(31),4,16,18,21,23,26,28-nonaen-6-yl)phenyl]propanoic acid] | B (a value between 3 and 6 is marked “B”) | C (a value greater than 10 °C and less than or equal to 25 °C is marked “C”) |
| CC1(C)CCCCC(C)(c2cccc(CCC(=O)O)c2)c2cnc([nH]2)-c2cc(ccc2F)Oc2c(F)cc3[nH]ccc3c2CCC(=O)NC1 (single isomer, unassigned) [Compound 46B, 3-[3-(24,30-difluoro-6,11,11-trimethyl-14-oxo-26-oxa-3,13,21,32-tetrazapentacyclo[25.3.1.12,5.017,25.018,22]dotriaconta-1(30),2,4,17(25),18(22),19,23,27(31),28-nonaen-6-yl)phenyl]propanoic acid] | A (a TECC value less than 3 is marked “A”) | C (a value greater than 10 °C and less than or equal to 25 °C is marked “C”) |
| CC1(C)CCC(C)(c2cccc(CCC(=O)O)c2)c2cnc([nH]2)-c2cc(ccc2F)Oc2c(F)cc3[nH]ccc3c2CCOC(=O)NC1 (stereo not drawn) [Compound 92, 3-[3-(23,29-Difluoro-6,9,9-trimethyl-12-oxo-13,25-dioxa-3,11,20,31-tetrazapentacyclo[24.3.1.12,5.016,24.017,21]hentriaconta-1(30),2,4,16(24),17(21),18,22,26,28-nonaen-6-yl)phenyl]propanoic acid] | C (a value between 6 and 20 is marked “C”) | C (a value greater than 10 °C and less than or equal to 25 °C is marked “C”) |
